Measured values from patent publication US20240008478A1, “Composition and Methods for Managing and Controlling Lepidopteran Insects” (priority 2022, published 2024).
Where a name gives a salt, the structure may show the parent alone.

Key:
H. zea = conditions: hollow fiber formulation; 12-ha maize field; cited from earlier work
moths = assay: Brazilian cotton field trial, compared with grower's standard methomyl cover spray (dead moth counts); assay type: in vivo, noctuid moths; conditions: methomyl alone sprayed over the entire crop, grower's standard rate; for 5 days after the application
Experimental: Initial work on products of the present disclosure consisted of a blend of oleoresins designed to mimic the attractive volatiles used by adult noctuids to identify sugar-rich sources of floral nectar. This blend also contains a number of sugar-based and proteic phagostimulants (feeding stimulants) to encourage the target insects to feed on the formulation to full engorgement. When a pesticide is added to this product, these components encourage megadose intake of the incorporated killing agent. This minimizes the risk of sub-lethal exposure, a contributing factor to the development of resistance. To further reduce the risk of resistance, the product may be designed as a tank mix to be blended with a small dose of the user's pesticide of choice just prior to application. This characteristic makes the product an extremely adaptable pest management solution and lends itself well to pesticide rotation programs. The product was originally tested in cotton and soybean fields in South America, where noctuid pests pose a significant economic threat to multiple crops. […]

Structure (SMILES) | rate of mating (H. zea) | dead moths recovered (moths)
CCCC/C=C\CCCCCCCCOC=O [(Z)-9-tetradecenyl formate] | cut in half | 
CNC(=O)ON=C(C)SC [methomyl] |  | no or very few dead moths
